Reference: patent US9302999B2, “Substituted triazoles as herbicides” (E. I. DU PONT DE NEMOURS AND COMPANY, priority 2012, dated 2016)
Where two headings read alike, the source gives them in different places.

Key:
Type in all cases: in vivo
[1] = system: pigweed (Amaranthus retroflexus); assay: Test A pre-/postemergence: pigweed; details: for pest or weed control at 125 g/ha / pest or weed control at 500 g/ha: Amaranthus retroflexus, 240 h
Outline: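 Whole-plant greenhouse assay in loam/sand. Preemergence directed soil spray plus simultaneous postemergence spray (one- to two-leaf stage, 2–10 cm). Rated visually ~10 days later, 0 = no effect, 100 = complete control.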

[2] = system: galium (catchweed bedstraw, Galium aparine); assay: Test C pre-/postemergence: galium
Text: (§1) Seeds of plant species selected from blackgrass (Alopecurus myosuroides), bromegrass, downy (downy bromegrass, Bromus tectorum), foxtail, green (green foxtail, Setaria viridis), ryegrass, Italian (Italian ryegrass, Lolium multiflorum), winter wheat (Triticum aestivum), wild oat (Avena fatua), galium (catchweed bedstraw, Galium aparine), bermudagrass (Cynodon dactylon), surinam grass (Brachiaria decumbens), cocklebur (common cocklebur, Xanthium strumarium), corn (Zea mays), large crabgrass (Digitaria sanguinalis), woolly cupgrass (Eriochloa villosa), foxtail, giant (giant foxtail, Setaria faberii), goosegrass (Eleusine indica), johnsongrass (Sorghum halepense), kochia (Kochia scoparia), lambsquarters (Chenopodium album), morningglory (Ipomoea coccinea), nightshade (eastern black nightshade, Solanum ptycanthum), nutsedge, yellow (yellow nutsedge, Cyperus esculentus), pigweed (Amaranthus retroflexus), ragweed (common ragweed, Ambrosia elation), soybean (Glycine max), common (oilseed) sunflower (Helianthus annuus), Russian thistle (Salsola kali) and velvetleaf (Abutilon theophrasti) were planted into a blend of loam soil and sand and treated preemergence with test chemicals formulated in a non-phytotoxic solvent mixture which included a surfactant.
(§2) At the same time, plants selected from these crop and weed species and also barley (winter barley, Hordeum vulgare), canarygrass (Phalaris minor), chickweed (common chickweed, Stellaria media) windgrass (Apera spica-venti) and deadnettle (henbit deadnettle, Lamium amplexicaule) were planted in pots containing Redi-Earth® planting medium (Scotts Company, 14111 Scottslawn Road, Marysville, Ohio 43041) comprising spaghnum peat moss, vermiculite, wetting agent and starter nutrients and treated with postemergence applications of test chemicals formulated in the same manner. Plants ranged in height from 2 to 18 cm (1- to 4-leaf stage) for postemergence treatments.
(§3) Treated plants and controls were maintained in a greenhouse for 13 to 15 days, after which time all species were compared to controls and visually evaluated. Plant response ratings, summarized in Table C, are based on a scale of 0 to 100 where 0 is no effect and 100 is complete control. A dash (-) response means no test result.

[3] = system: morningglory (Ipomoea coccinea); assay: Test C pre-/postemergence: morningglory
Outline: (§4)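 Visual injury scored 0–100 (100 = complete control) against untreated controls after 13–15 greenhouse days. Surfactant-containing solvent formulations applied either to soil after sowing (loam/sand) or over 1- to 4-leaf plants, 2–18 cm tall.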

[4] = system: nutsedge, yellow (yellow nutsedge, Cyperus esculentus); assay: Test C pre-/postemergence: nutsedge, yellow
Outline: as §4

[5] = system: winter wheat (Triticum aestivum); assay: Test C pre-/postemergence: winter wheat
Text: as §1, §2, §3

wild oat (Avena fatua) = assay: Test C pre-/postemergence: wild oat
Text: as §1, §2, §3

[6] = system: ragweed (common ragweed, Ambrosia elation); assay: Test C pre-/postemergence: ragweed
Text: as §1, §2, §3

[7] = system: blackgrass (Alopecurus myosuroides); assay: Test C pre-/postemergence: blackgrass
Outline: as §4

[8] = system: pigweed (Amaranthus retroflexus); assay: Test C pre-/postemergence: pigweed
Outline: as §4

[9] = Postemergence, 16 g ai/ha, scale 0 to 100, 0 no effect, 100 complete control
[10] = Postemergence, 31 g ai/ha, scale 0 to 100 (0 no effect, 100 complete control)
[11] = Postemergence, 62 g ai/ha, scale 0 to 100 (0 no effect, 100 complete control)
[12] = Postemergence, 125 g ai/ha, scale 0 to 100, 0 no effect, 100 complete control
[13] = Preemergence, 16 g ai/ha, scale 0 (no effect) to 100 (complete control)
[14] = Preemergence, 31 g ai/ha, scale of 0 to 100, 0 is no effect, 100 is complete control
[15] = Preemergence, 62 g ai/ha, scale of 0 to 100, 0 is no effect, 100 is complete control
[16] = Preemergence, 125 g ai/ha, scale 0 to 100, 0 no effect, 100 complete control
[17] = Preemergence, 62 g ai/ha, scale 0 to 100, 0 no effect, 100 complete control
[18] = Preemergence, 250 g ai/ha, scale 0 to 100, 0 no effect, 100 complete control
[19] = Postemergence, 250 g ai/ha, scale 0 to 100

COc1nn(-c2ccc(C(F)(F)F)cc2)nc1Cc1ccnc(C(F)(F)F)c1 [Compound 15, 4-[[5-methoxy-2-[4-(trifluoromethyl)phenyl]-2H-1,2,3-triazol-4-yl]methyl]-2-(trifluoromethyl)pyridine]
30: Plant response rating, Blackgrass [7, 10]
100%: pest or weed control at 125 g/ha ([1]; post-emergence, Postemergence, 125 g ai/ha, 0 to 100 scale, 0 is no effect, 100 is complete control, read-out: Pigweed plant response rating) | pest or weed control at 500 g/ha ([1]; post-emergence, Postemergence, 500 g ai/ha, visual rating on 0 to 100 scale (0 no effect, 100 complete control), approximately ten days, read-out: Pigweed plant response rating) | pest or weed control at 125 g/ha ([1]; pre-emergence, Preemergence, 125 g ai/ha, 0 to 100 scale (0 no effect, 100 complete control), read-out: Plant response rating, Pigweed) | pest or weed control at 500 g/ha ([1]; pre-emergence, Preemergence, 500 g ai/ha, 0 to 100 scale, 0 is no effect, 100 is complete control, read-out: Plant response rating, Pigweed)
50: Plant response rating, Galium [2, 9] | Plant response rating, Galium [2, 13] | Plant response rating, Wheat [5, 16] | Plant response rating, Blackgrass [7, 14]
85: Plant response rating, Blackgrass [7, 17]
35: Plant response rating, Wheat [5, 11] | Plant response rating, Wheat [5, 12] | Plant response rating, Oat, Wild (wild oat (Avena fatua); [13])
15: Plant response rating, Morningglory [3, 15] | Plant response rating, Wheat [5, 9] | Plant response rating, Blackgrass [7, 13]
10: Plant response rating, Nutsedge, Yellow [4, 16] | Plant response rating, Wheat [5, 14]
70: Plant response rating, Oat, Wild (wild oat (Avena fatua); [15]) | Plant response rating, Oat, Wild (wild oat (Avena fatua); [16]) | Plant response rating, Ragweed [6, 12] | Plant response rating, Pigweed [8, 11]
95: Plant response rating, Galium [2, 15] | Plant response rating, Blackgrass [7, 16]
80: Plant response rating, Galium [2, 12] | Plant response rating, Blackgrass [7, 12]
98: Plant response rating, Galium [2, 16] | Plant response rating, Pigweed [8, 13]
60: Plant response rating, Oat, Wild (wild oat (Avena fatua); [12]) | Plant response rating, Ragweed [6, 10] | Plant response rating, Ragweed [6, 11] | Plant response rating, Blackgrass [7, 11] | Plant response rating, Pigweed [8, 10]
55: Plant response rating, Galium [2, 10] | Plant response rating, Galium [2, 11] | Plant response rating, Oat, Wild (wild oat (Avena fatua); [11])
75: Plant response rating, Galium [2, 14] | Plant response rating, Morningglory [3, 10] | Plant response rating, Morningglory [3, 11]
90: Plant response rating, Morningglory [3, 12] | Plant response rating, Pigweed [8, 12]
100: Plant response rating, Pigweed [8, 14] | Plant response rating, Pigweed [8, 15] | Plant response rating, Pigweed [8, 16]
40: Plant response rating, Oat, Wild (wild oat (Avena fatua); [9]) | Plant response rating, Oat, Wild (wild oat (Avena fatua); [14])
25: Plant response rating, Wheat [5, 10] | Plant response rating, Wheat [5, 15]
0: Plant response rating, Nutsedge, Yellow [4, 9] | Plant response rating, Nutsedge, Yellow [4, 10] | Plant response rating, Nutsedge, Yellow [4, 11] | Plant response rating, Nutsedge, Yellow [4, 12] | Plant response rating, Nutsedge, Yellow [4, 13] | Plant response rating, Nutsedge, Yellow [4, 14] | Plant response rating, Nutsedge, Yellow [4, 15] | Plant response rating, Wheat [5, 13]
20: Plant response rating, Blackgrass [7, 9]
45: Plant response rating, Morningglory [3, 9] | Plant response rating, Morningglory [3, 16] | Plant response rating, Oat, Wild (wild oat (Avena fatua); [10]) | Plant response rating, Ragweed [6, 9]
5: Plant response rating, Morningglory [3, 13] | Plant response rating, Morningglory [3, 14] | Plant response rating, Pigweed [8, 9]

Cc1nn(-c2ccc(C(F)(F)F)cc2)nc1Oc1ccnc(C(F)(F)F)c1 [Compound 120]
65: Plant response rating, Morningglory [3, 12] | Plant response rating, Ragweed [6, 18]
30: Plant response rating, Blackgrass [7, 11]
5: Plant response rating, Wheat [5, 14]
0: Plant response rating, Nutsedge, Yellow [4, 10] | Plant response rating, Nutsedge, Yellow [4, 11] | Plant response rating, Nutsedge, Yellow [4, 12] | Plant response rating, Nutsedge, Yellow [4, 19] | Plant response rating, Nutsedge, Yellow [4, 14] | Plant response rating, Nutsedge, Yellow [4, 15] | Plant response rating, Nutsedge, Yellow [4, 16] | Plant response rating, Nutsedge, Yellow [4, 18] | Plant response rating, Ragweed [6, 14]
100: Pigweed plant response rating ([1]; Postemergence, 500 g ai/ha, visual rating on 0 to 100 scale (0 no effect, 100 complete control), approximately ten days) | Plant response rating, Pigweed ([1]; Preemergence, 125 g ai/ha, 0 to 100 scale where 0 is no effect and 100 is complete control) | Plant response rating, Pigweed ([1]; Preemergence, 500 g ai/ha, 0 to 100 scale (0 no effect, 100 complete control)) | Plant response rating, Galium [2, 15] | Plant response rating, Galium [2, 16] | Plant response rating, Galium [2, 18] | Plant response rating, Pigweed [8, 19] | Plant response rating, Pigweed [8, 14] | Plant response rating, Pigweed [8, 15] | Plant response rating, Pigweed [8, 16] | Plant response rating, Pigweed [8, 18]
50: Plant response rating, Wheat [5, 18]
80: Plant response rating, Galium [2, 10] | Plant response rating, Galium [2, 11] | Plant response rating, Oat, Wild (wild oat (Avena fatua); [12]) | Plant response rating, Ragweed [6, 12]
45: Plant response rating, Morningglory [3, 14] | Plant response rating, Morningglory [3, 15] | Plant response rating, Morningglory [3, 16] | Plant response rating, Ragweed [6, 15] | Plant response rating, Ragweed [6, 16]
98: Plant response rating, Galium [2, 14] | Plant response rating, Morningglory [3, 19] | Plant response rating, Pigweed [8, 11] | Plant response rating, Pigweed [8, 12]
10: Plant response rating, Wheat [5, 10] | Plant response rating, Wheat [5, 11]
40: Plant response rating, Wheat [5, 16]
35: Plant response rating, Wheat [5, 12] | Plant response rating, Wheat [5, 19]
85: Plant response rating, Galium [2, 12] | Plant response rating, Oat, Wild (wild oat (Avena fatua); [14]) | Plant response rating, Ragweed [6, 19] | Plant response rating, Blackgrass [7, 19]
90: Pigweed plant response rating ([1]; Postemergence, 125 g ai/ha, 0 to 100 scale, 0 is no effect, 100 is complete control) | Plant response rating, Morningglory [3, 18] | Plant response rating, Oat, Wild (wild oat (Avena fatua); [19]) | Plant response rating, Oat, Wild (wild oat (Avena fatua); [15]) | Plant response rating, Blackgrass [7, 14] | Plant response rating, Blackgrass [7, 17] | Plant response rating, Blackgrass [7, 16] | Plant response rating, Blackgrass [7, 18]
25: Plant response rating, Wheat [5, 15] | Plant response rating, Blackgrass [7, 10]
95: Plant response rating, Oat, Wild (wild oat (Avena fatua); [16]) | Plant response rating, Oat, Wild (wild oat (Avena fatua); [18]) | Plant response rating, Pigweed [8, 10]
60: Plant response rating, Morningglory [3, 10] | Plant response rating, Morningglory [3, 11] | Plant response rating, Oat, Wild (wild oat (Avena fatua); [11]) | Plant response rating, Ragweed [6, 10] | Plant response rating, Ragweed [6, 11] | Plant response rating, Blackgrass [7, 12]
55: Plant response rating, Oat, Wild (wild oat (Avena fatua); [10])
